# Results taken from ChEMBL document CHEMBL1201862, “PubChem BioAssay data set” (2004).
# Active and inactive are the calls of the source.
# Assays:
# [1] = target: T1, RNA-binding protein pos-1 (Caenorhabditis elegans, UniProt G5EF15); experiment: inhibitors of POS-1/mex-3 RNA binding, dose response, biochemical, fluorescence polarization (AID 1964);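 further: purified POS-1 fused to maltose binding protein made in E. coli; potency of compounds blocking POS-1 binding to fluorescent RNA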
# T1 sequence (G5EF15 whole entry): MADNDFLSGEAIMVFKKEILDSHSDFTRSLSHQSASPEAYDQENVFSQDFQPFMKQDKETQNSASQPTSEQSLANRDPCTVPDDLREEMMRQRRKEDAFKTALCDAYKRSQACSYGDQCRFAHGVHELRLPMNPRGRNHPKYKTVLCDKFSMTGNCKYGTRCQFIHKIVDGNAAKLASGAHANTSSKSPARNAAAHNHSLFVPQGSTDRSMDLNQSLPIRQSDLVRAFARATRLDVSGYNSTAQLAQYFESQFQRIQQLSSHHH
# [2] = target: T2, Zinc finger protein mex-5 (Caenorhabditis elegans, UniProt Q9XUB2); experiment: MEX-5/TCR-2 RNA interaction inhibitors, dose response, biochemical, C. elegans, fluorescence polarization (AID 1960)
# T2 sequence (Q9XUB2 whole entry): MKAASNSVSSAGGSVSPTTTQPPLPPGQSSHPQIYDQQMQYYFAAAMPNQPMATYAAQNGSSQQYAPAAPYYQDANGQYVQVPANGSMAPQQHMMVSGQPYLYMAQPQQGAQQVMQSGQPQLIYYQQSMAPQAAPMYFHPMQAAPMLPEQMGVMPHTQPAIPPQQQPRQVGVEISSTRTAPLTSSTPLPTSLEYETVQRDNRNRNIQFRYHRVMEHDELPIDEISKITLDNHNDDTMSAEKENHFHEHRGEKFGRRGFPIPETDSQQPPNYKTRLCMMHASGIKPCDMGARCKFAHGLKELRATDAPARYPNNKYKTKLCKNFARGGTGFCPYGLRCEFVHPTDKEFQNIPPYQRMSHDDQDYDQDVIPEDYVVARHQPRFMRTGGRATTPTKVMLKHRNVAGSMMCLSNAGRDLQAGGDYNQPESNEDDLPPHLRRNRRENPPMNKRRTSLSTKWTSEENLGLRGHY
# [3] = target: Cytochrome P450 3A4 (Homo sapiens, UniProt P08684); settings: Potency;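 further: confirmatory qHTS run detecting inhibitors and substrates of CYP3A4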
# Cytochrome P450 3A4, sequence (P08684 whole entry): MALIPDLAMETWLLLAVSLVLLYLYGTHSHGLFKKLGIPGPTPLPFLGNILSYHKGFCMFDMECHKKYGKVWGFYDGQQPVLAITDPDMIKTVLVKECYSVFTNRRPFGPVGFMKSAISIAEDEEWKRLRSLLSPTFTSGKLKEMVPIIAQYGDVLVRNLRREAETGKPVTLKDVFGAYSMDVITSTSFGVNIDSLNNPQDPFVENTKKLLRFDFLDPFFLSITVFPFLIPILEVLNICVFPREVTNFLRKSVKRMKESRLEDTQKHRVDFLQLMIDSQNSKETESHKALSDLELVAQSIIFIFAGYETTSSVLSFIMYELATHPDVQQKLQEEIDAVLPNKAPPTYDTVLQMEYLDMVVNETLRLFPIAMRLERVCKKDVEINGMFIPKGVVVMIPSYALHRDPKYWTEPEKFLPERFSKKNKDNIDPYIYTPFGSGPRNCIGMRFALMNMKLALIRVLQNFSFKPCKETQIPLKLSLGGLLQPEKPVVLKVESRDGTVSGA
# [4] = target: T3, Leucine aminopeptidase (Plasmodium falciparum 3D7, UniProt Q8IL11); experiment: P. falciparum M17LAP inhibitors, primary screen, biochemical, fluorogenic H-Leu-NHMec substrate, 1536-well (AID 1619); format: functional
# T3 sequence (Q8IL11 whole entry): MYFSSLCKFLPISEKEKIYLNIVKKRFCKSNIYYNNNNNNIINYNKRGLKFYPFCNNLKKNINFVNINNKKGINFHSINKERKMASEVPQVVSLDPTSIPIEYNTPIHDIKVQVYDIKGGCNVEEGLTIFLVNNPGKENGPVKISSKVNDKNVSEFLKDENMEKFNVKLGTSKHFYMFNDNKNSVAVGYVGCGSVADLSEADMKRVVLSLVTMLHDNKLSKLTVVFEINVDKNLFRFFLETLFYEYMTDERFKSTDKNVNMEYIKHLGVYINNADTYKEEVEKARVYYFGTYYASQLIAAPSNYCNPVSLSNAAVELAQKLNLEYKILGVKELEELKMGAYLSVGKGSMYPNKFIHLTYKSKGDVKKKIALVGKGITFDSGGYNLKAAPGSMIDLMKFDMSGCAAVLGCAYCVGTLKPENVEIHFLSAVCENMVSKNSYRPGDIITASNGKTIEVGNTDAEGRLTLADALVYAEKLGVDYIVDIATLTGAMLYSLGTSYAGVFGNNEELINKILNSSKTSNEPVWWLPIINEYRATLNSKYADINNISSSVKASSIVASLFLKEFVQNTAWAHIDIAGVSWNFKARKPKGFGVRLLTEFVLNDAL
# [5] = target: T4, Rac GTPase-activating protein 1 (Homo sapiens, UniProt Q9H0H5); experiment: MgcRacGAP GTPase-activating activity inhibitors, confirmation, biochemical, ADP Hunter fluorescence, primary and confirmatory (AID 624330); format: functional
# T4 sequence (Q9H0H5 whole entry): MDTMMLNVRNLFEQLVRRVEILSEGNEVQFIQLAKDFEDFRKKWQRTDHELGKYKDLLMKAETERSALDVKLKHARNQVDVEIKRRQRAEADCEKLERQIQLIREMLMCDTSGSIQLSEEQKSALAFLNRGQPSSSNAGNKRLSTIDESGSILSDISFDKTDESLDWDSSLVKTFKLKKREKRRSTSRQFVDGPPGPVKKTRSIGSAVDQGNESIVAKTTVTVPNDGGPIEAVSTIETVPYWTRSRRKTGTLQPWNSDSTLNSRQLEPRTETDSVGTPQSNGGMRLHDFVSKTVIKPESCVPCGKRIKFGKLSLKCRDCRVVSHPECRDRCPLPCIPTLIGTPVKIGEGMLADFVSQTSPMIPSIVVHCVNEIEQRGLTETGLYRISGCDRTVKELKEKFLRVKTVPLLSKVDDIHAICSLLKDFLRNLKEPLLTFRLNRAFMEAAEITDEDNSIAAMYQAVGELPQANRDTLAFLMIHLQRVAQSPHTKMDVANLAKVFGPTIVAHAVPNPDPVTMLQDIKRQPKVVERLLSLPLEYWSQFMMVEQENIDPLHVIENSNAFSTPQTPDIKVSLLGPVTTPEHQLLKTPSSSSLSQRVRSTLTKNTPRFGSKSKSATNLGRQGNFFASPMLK
# [6] = HEp-2 cell cytotoxicity, dose response, cytotoxicity control for RSV inhibitor project, HTS (AID 2410); format: functional; settings: human respiratory syncytial virus
# [7] = target: T5, Calpain-2 catalytic subunit (Sus scrofa, UniProt P43367); experiment: pig calpain II inhibitor potency, dose response, biochemical, fluorogenic peptide substrate (AID 1420); format: functional
# T5 sequence (P43367 whole entry): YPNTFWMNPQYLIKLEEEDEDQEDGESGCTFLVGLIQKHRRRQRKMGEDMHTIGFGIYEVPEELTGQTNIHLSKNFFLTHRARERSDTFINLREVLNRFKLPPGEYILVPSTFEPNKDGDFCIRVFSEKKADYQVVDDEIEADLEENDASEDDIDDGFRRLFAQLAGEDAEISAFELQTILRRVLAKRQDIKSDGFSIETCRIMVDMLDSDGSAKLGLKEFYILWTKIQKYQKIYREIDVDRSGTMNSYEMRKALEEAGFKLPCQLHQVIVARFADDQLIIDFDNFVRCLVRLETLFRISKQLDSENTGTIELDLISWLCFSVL
# [8] = target: T6, Protein RecA (Mycobacterium tuberculosis, UniProt P9WHJ3); experiment: Fluorescence Cell-Free Homogeneous Dose Retest to Identify Inhibitors of RecA-Intein Splicing Activity. [Related pubchem assays (depositor defined):AID2097, AID2223, AID489010, AID492950]; format: functional
# T6 sequence (P9WHJ3 whole entry): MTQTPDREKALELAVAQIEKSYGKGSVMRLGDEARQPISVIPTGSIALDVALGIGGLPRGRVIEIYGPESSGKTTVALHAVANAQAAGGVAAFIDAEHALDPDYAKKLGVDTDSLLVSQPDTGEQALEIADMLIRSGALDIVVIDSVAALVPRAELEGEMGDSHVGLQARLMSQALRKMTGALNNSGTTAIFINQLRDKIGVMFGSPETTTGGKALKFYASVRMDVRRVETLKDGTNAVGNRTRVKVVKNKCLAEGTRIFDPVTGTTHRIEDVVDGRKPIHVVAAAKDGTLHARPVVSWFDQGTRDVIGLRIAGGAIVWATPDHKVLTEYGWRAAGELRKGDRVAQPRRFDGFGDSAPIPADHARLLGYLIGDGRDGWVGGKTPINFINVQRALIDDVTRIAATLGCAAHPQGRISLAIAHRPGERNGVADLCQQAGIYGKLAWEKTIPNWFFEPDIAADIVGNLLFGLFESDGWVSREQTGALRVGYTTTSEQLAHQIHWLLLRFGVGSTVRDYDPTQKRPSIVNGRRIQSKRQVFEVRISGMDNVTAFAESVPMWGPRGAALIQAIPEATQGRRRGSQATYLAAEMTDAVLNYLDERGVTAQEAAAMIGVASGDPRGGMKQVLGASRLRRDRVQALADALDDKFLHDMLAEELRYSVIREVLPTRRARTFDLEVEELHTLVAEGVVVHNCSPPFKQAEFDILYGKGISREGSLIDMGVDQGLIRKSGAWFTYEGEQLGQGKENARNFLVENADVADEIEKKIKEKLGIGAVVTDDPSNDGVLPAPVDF
# [9] = target: T7, Replicative DNA helicase DnaB (Mycobacterium tuberculosis, UniProt P9WMR3); experiment: DnaB intein splicing inhibitors, dose response, biochemical, cell-free fluorescence (AID 449749); format: functional
# T7 sequence (P9WMR3 whole entry): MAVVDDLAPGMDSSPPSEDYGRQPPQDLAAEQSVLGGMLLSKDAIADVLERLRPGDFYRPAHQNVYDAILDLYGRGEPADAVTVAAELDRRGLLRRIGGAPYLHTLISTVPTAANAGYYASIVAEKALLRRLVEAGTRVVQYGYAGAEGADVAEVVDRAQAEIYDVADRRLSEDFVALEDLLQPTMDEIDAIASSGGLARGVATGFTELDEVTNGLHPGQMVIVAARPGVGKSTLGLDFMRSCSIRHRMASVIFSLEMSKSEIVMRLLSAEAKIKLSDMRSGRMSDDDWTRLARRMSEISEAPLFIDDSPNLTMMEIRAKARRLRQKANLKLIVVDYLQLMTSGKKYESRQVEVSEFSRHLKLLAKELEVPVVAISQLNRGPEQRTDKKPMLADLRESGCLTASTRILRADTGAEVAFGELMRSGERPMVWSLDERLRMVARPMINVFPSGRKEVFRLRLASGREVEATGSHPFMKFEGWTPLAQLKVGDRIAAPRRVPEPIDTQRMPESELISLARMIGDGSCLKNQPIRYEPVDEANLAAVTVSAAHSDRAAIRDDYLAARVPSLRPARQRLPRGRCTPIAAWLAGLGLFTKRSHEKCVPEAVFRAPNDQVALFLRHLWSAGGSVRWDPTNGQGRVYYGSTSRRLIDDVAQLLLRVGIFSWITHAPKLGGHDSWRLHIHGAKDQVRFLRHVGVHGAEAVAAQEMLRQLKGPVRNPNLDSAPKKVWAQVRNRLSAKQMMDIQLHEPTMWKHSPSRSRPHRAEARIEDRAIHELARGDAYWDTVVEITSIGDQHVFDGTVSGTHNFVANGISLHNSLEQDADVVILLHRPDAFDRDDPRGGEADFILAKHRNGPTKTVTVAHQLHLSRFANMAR
SMILES,EC50 [1],EC50 [2],AC50 [3],further results
CN1C(=O)C(=Cc2cn(CC(=O)N3CCCCC3)c3ccccc23)C(=O)N(C)C1=O,> 300 µM (not active),> 300 µM (not active),,
Cc1ccccc1NS(=O)(=O)c1cc(C(=O)N2CCCC2)ccc1C,> 300 µM (not active),> 300 µM (not active),,
Cc1ccc(C2c3sc(=O)[nH]c3SC3C(=O)NC(=O)C32)cc1 (centres undefined),> 300 µM (inconclusive),6.53 µM (inconclusive),,
O=C(O)Cn1cc(/C=C2\C(=O)NC(=O)N(c3ccc(F)cc3)C2=O)c2ccccc21,9.27 µM (active),8.21 µM (active),,
O=C1c2c(O)cc(O)cc2OC(c2ccc(O)c(O)c2)C1O (centres undefined) [TAXIFOLIN],,,25.1 µM (inconclusive),
Nc1n[nH]c(N)c1N=Nc1ccc(Cl)cc1,,,,IC50 [4]: 12.5 µM (active)
COC(=O)CCCCCN1C(=O)NC(CC2CC2)C(C(=O)OCc2ccccc2)=C1C (centres undefined),,,20 µM (inconclusive),
COc1cc(/C=N/NP(=S)(c2ccccc2)c2ccccc2)ccc1O,,,,IC50 [5]: 109 µM (active); CC50 [6]: 30.3 µM (active); IC50 [7]: 14.2 µM (not active)
CC(=O)c1c(O)c(C)c(O)c2c1OC1=CC(=O)C(C(C)=O)C(=O)C12C (centres undefined),,,0.159 µM (inconclusive),
CCn1c(SCC(=O)Nc2cc(C)on2)nnc1-c1ccc(OC)cc1,> 300 µM (not active),> 300 µM (not active),,
COCc1cc(O)n2nc(-c3cccs3)cc2n1,> 300 µM (not active),> 300 µM (not active),,
CC(C)c1c(O)ccc2c1CCC1[C@@](C)(C=O)CCC[C@@]21C (some centres undefined),,,31.6 µM (inconclusive),
N#Cc1ccc(C23CC4(C2)[C@H](CN(CC2CCCCC2)[C@@H]4c2ccccc2)C3c2ccc(Cl)nc2)cc1 (some centres undefined),,,15.8 µM (inconclusive),
COc1ccc2c(c1OC)C(=O)OC2Nc1nc(-c2cc3ccccc3oc2=O)cs1 (centres undefined),,,,IC50 [4]: 5.03 µM (active)
CCN1C(C)=C(C(=O)OC)C(c2ccccc2)N2C(=O)[C@](O)(C(=O)OC)C(c3ccccc3)C(C(C)=O)=C12 (some centres undefined),,,3.98 µM (inconclusive),
C=CCN1C(=O)NC(=O)/C(=C/c2ccc(OCC(=O)Nc3ccc(C)cc3)cc2)C1=O,> 300 µM (not active),> 300 µM (not active),,
O=C(CSc1nnc(-c2ccc(NS(=O)(=O)c3ccccc3)cc2)o1)NCC1CCCO1 (centres undefined),,,,IC50 [4]: 6.04 µM (active)
CCOC(=O)C1Nc2c(F)cc(C)cc2C2c3ccccc3CC12 (centres undefined),,,,CC50 [6]: 31.9 µM (active); EC50 [8]: 36 µM (active); AC50 [9]: 11.4 µM (active)
